In ChEMBL document CHEMBL1201862, “PubChem BioAssay data set” (2004):
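Cells were grown in 96-well plates and exposed to each compound for 48 hours at five concentrations; endpoints were interpolated linearly between bracketing concentrations, or set to the highest concentration if not reached. Abbreviation: GI50, concentration required for 50% inhibition of growth.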 The source made the active and inactive calls. No stated cut-off is given here; in the data, active = GI50 up to about 1.1 µM and inactive = higher.

How the values were obtained:
Test in all cases: NCI tumour cell line growth inhibition, 48 h
A498 = system: A498
CAKI-1 = system: CAKI-1
CCRF-CEM = system: CCRF-CEM
HCC 2998 = system: HCC 2998
HOP-62 = system: HOP-62
Hs-578T = system: Hs-578T
KM12 = system: KM12
LOX IMVI = system: LOX IMVI
MDA-MB-231 = system: MDA-MB-231
NCI-H226 = system: NCI-H226
OVCAR-4 = system: OVCAR-4
SF-295 = system: SF-295
SK-MEL-28 = system: SK-MEL-28
SK-OV-3 = system: SK-OV-3
SNB-75 = system: SNB-75
SR = system: SR
SW-620 = system: SW-620
UACC-257 = system: UACC-257
UACC-62 = system: UACC-62
UO-31 = system: UO-31

Compound	GI50 (A498)	GI50 (CAKI-1)	GI50 (CCRF-CEM)	GI50 (HCC 2998)	GI50 (HOP-62)	GI50 (Hs-578T)	GI50 (KM12)	GI50 (LOX IMVI)	GI50 (MDA-MB-231)	GI50 (NCI-H226)	GI50 (OVCAR-4)	GI50 (SF-295)	GI50 (SK-MEL-28)	GI50 (SK-OV-3)	GI50 (SNB-75)	GI50 (SR)	GI50 (SW-620)	GI50 (UACC-257)	GI50 (UACC-62)	GI50 (UO-31)
C=C1CCC(CC[C@@H]2CC[C@]3(OC2)O[C@@]2(O)CC[C@]3(C)OC2(C)C)C(C)(C)[C@H]1C/C=C1/C(=O)OC[C@@H]1O (stereo not given in full)	5.93 µM (inactive)	5 µM (inactive)	1.06 µM (active)	4.16 µM (inactive)	6.1 µM (inactive)	4.2 µM (inactive)	2.34 µM (inactive)	0.24 µM (active)	1.69 µM (inactive)	2.29 µM (inactive)	0.263 µM (active)	0.348 µM (active)	1.59 µM (inactive)	4.85 µM (inactive)	7.29 µM (inactive)	1.54 µM (inactive)	3.33 µM (inactive)	0.363 µM (active)	1.34 µM (inactive)	4.91 µM (inactive)
CN(CCCNC(=O)c1cn(C)c2c1ccc1cc(Cl)c(Cl)cc12)CCCNC(=O)c1cn(C)c2c1ccc1cc(Cl)c(Cl)cc12	12.9 µM (inactive)	11.6 µM (inactive)	8.53 µM (inactive)	4 µM (inactive)	14.3 µM (inactive)	8.73 µM (inactive)	5.31 µM (inactive)	5.74 µM (inactive)	15.4 µM (inactive)	22.1 µM (inactive)	0.789 µM (active)	17.1 µM (inactive)	18.5 µM (inactive)	15.2 µM (inactive)	10.8 µM (inactive)	4.57 µM (inactive)	4.19 µM (inactive)	19.3 µM (inactive)	16.1 µM (inactive)	16.7 µM (inactive)
COCn1c2ccc(OC(C)=O)cc2c2c(=O)oc(C)nc21	50.4 µM (inactive)	57.7 µM (inactive)	> 100 µM (inactive)	> 100 µM (inactive)	> 100 µM (inactive)	> 100 µM (inactive)	> 100 µM (inactive)	> 100 µM (inactive)	> 100 µM (inactive)	> 100 µM (inactive)	> 100 µM (inactive)	> 100 µM (inactive)	> 100 µM (inactive)	> 100 µM (inactive)	> 100 µM (inactive)	> 100 µM (inactive)	> 100 µM (inactive)	> 100 µM (inactive)	> 100 µM (inactive)	> 100 µM (inactive)
O=C(c1ccc(Cl)cc1)c1cnc(Nc2ccccc2Cl)s1	3.91 µM (inactive)	17.3 µM (inactive)	> 100 µM (inactive)	29 µM (inactive)	25.1 µM (inactive)	32.4 µM (inactive)	27.2 µM (inactive)	36 µM (inactive)	41.4 µM (inactive)	25.8 µM (inactive)	33.4 µM (inactive)	21.5 µM (inactive)	16.6 µM (inactive)	23 µM (inactive)	19.6 µM (inactive)	> 100 µM (inactive)	40.1 µM (inactive)	21 µM (inactive)	21.5 µM (inactive)	21.6 µM (inactive)
CC(=O)c1cccc2c1CC1(C2)Cc2ccc3c(c2C1=O)CCC3 (stereo not given)	> 100 µM (inactive)	48 µM (inactive)	34.8 µM (inactive)	15 µM (inactive)	54 µM (inactive)	32.7 µM (inactive)	29.6 µM (inactive)	27.5 µM (inactive)	32.6 µM (inactive)	23.9 µM (inactive)	29.5 µM (inactive)	43.2 µM (inactive)	42.1 µM (inactive)	83.6 µM (inactive)	35.9 µM (inactive)	14.8 µM (inactive)	55.2 µM (inactive)	14.8 µM (inactive)	78.5 µM (inactive)	30.3 µM (inactive)
O=c1/c(=C/c2ccc([N+](=O)[O-])o2)sc2n1[C@@H](c1ccc3c(c1)OCO3)C=C(c1cc(F)c(Cl)cc1Cl)N=2	56 µM (inactive)	13.7 µM (inactive)	3.24 µM (inactive)	12.9 µM (inactive)	22.5 µM (inactive)	61 µM (inactive)	16.6 µM (inactive)	17.2 µM (inactive)	23 µM (inactive)	46.7 µM (inactive)	15.7 µM (inactive)	31.2 µM (inactive)	22.3 µM (inactive)	46.5 µM (inactive)	17.3 µM (inactive)	3.33 µM (inactive)	5.42 µM (inactive)	17.2 µM (inactive)	15.9 µM (inactive)	16.7 µM (inactive)
Cc1ccc(NC(=S)C#N)c(C)c1	> 100 µM (inactive)	> 100 µM (inactive)	24.2 µM (inactive)	> 100 µM (inactive)	> 100 µM (inactive)	> 100 µM (inactive)	> 82.8 µM (inactive)	73.1 µM (inactive)	> 100 µM (inactive)	> 84.3 µM (inactive)	> 64.1 µM (inactive)	> 100 µM (inactive)	65.3 µM (inactive)	> 100 µM (inactive)	> 82.4 µM (inactive)	33.7 µM (inactive)	> 73.5 µM (inactive)	63.2 µM (inactive)	97.3 µM (inactive)	50 µM (inactive)
O=C(O)CCCSc1nc2ccccc2s1	> 100 µM (inactive)	> 100 µM (inactive)	> 100 µM (inactive)	> 100 µM (inactive)	> 100 µM (inactive)	> 100 µM (inactive)	> 100 µM (inactive)	> 100 µM (inactive)	> 100 µM (inactive)	> 100 µM (inactive)	> 100 µM (inactive)	> 100 µM (inactive)	> 100 µM (inactive)	> 100 µM (inactive)	> 100 µM (inactive)	> 100 µM (inactive)	> 100 µM (inactive)	> 100 µM (inactive)	> 100 µM (inactive)	> 100 µM (inactive)
Clc1ccc(CCN(CCc2ccc(Cl)c(Cl)c2)CCN2CCCC2)cc1Cl	1.77 µM (inactive)	1.64 µM (inactive)	1.15 µM (inactive)	1.68 µM (inactive)	1.67 µM (inactive)	1.9 µM (inactive)	1.67 µM (inactive)	1.6 µM (inactive)	1.56 µM (inactive)	1.67 µM (inactive)	1.85 µM (inactive)	1.78 µM (inactive)	1.77 µM (inactive)	1.78 µM (inactive)	2.23 µM (inactive)	2.01 µM (inactive)	1.72 µM (inactive)	1.78 µM (inactive)	1.63 µM (inactive)	1.64 µM (inactive)
CN(C)CCNc1ccc2ncnc3c2c1C(=O)c1ccccc1-3	1.64 µM (inactive)	0.259 µM (active)	0.143 µM (active)	0.348 µM (active)	0.242 µM (active)	0.989 µM (active)	0.393 µM (active)	0.24 µM (active)	0.337 µM (active)	0.431 µM (active)	0.627 µM (active)	0.174 µM (active)	2.33 µM (inactive)	1.81 µM (inactive)	0.446 µM (active)	0.0824 µM (active)	0.129 µM (active)	2.09 µM (inactive)	0.757 µM (active)	0.468 µM (active)
